Measurements: PMC4836675, “Tetrabromobisphenol A Is an Efficient Stabilizer of the Transthyretin Tetramer” (PLoS ONE, 2016)
Entries after “also recorded” stand apart in the source; their conditions may differ. Where two headings read alike, the source gives them in different places. Each block holds one molecule with its values, some of them ahead of it.

Columns and labels:
[1] = system: SH-SY5Y neuroblastoma cells; test: TTR-mediated cytotoxicity, resazurin cell-viability assay; details: TTR 15 μM, compound 15 μM, 72 h
WT-TTR = molecular target: T1, WT-TTR (Homo sapiens, UniProt P02766); test: Turbidity assay of TTR aggregation at low pH; assay type: biochemical; details: WT-TTR 15 μM tetramer, compound 15 μM, pH 4.5, 72 h
T1 construct: made in house; host or cells: E. coli BL21

[2] = parameters: method as in earlier work; details: steady state after 14 days of daily administration; cited from earlier work
V30M-TTR = molecular target: T2, V30M-TTR (Homo sapiens, UniProt P02766, V50M); test: Turbidity assay of TTR aggregation at low pH; assay type: biochemical; details: V30M-TTR 15 μM tetramer, compound 15 μM, pH 4.5, 72 h
T2 construct: made in house; host or cells: E. coli BL21

plasma TTR = plasma TTR (Homo sapiens, UniProt P02766); test: Drug efficacy/selectivity in human plasma (urea denaturation, western blot of monomeric TTR)
Sprague—Dawley rats = system: Sprague—Dawley rats; parameters: method as in PMID 25523853; details: prolonged daily oral 100, 300, or 1000 mg·kg−1·day−1; cited from earlier work
[3] = cited from earlier work
[4] = system: Salmonella typhimurium, Escherichia coli, and yeast cells; details: with and without metabolic activation; cited from earlier work
TTR = molecular target: T3, TTR (Homo sapiens, UniProt P02766); test: Isothermal titration calorimetry (ITC); assay type: binding
T3 construct: made in house; host or cells: E. coli BL21
Method: ITC experiments were performed using an Auto-iTC200 (MicroCal) at 25°C. […] For each experiment, 19 automated injections of 2 μL and a duration 0.8 s were performed with 300 s intervals between each injection and with a stirring speed of 1000 rpm. The titrations were done with high feedback and a filter period of 5 s and were repeated twice. Calorimetric data were plotted and fitted using the standard single-site binding model.

[5] = cited from earlier work; for Serum concentration: after seven days, 12 hours after last dose
[6] = rats, single oral dose 300 mg/kg body weight

Aggregation of TTR at low pH (turbidity at 400 nm) (WT-TTR): prevents the aggregation
Aggregation of TTRVal30Met at low pH (turbidity at 400 nm) (V30M-TTR): prevents the aggregation
Saturation level of TTR (plasma TTR; from IC50 around 5 μM and tafamidis plasma concentration 3.5–8.5 μM, TTR 4 μM): 31–56%
SMILES: O=C(O)c1ccc2nc(-c3cc(Cl)cc(Cl)c3)oc2c1 [Tafamidis, tafamidis]
Cell survival in presence of cytotoxic TTR [1]: increased cell survival to essentially that of the untreated control cells
Clinically beneficial plasma concentration [2]: 3.5 to 8.5 µM

SMILES: CC(C)(c1cc(Br)c(O)c(Br)c1)c1cc(Br)c(O)c(Br)c1 [TBBPA, 2,2’,6,6’-tetrabromo-4,4’-isopropylidentediphenol]
Cell survival in presence of cytotoxic TTR [1]: increased cell survival to essentially that of the untreated control cells
Aggregation of TTR at low pH (turbidity at 400 nm) (WT-TTR): efficiently prevents the aggregation
Mortality and neuropathological ailments (Sprague—Dawley rats): did not result in increased mortality or the development of neuropathological ailments
Oral bioavailability ([3]; animals, oral intake, compared to tafamidis and diflunisal): low bioavailability
Half-lives ([3]; oral 200, 500 and 1000 mg/kg): 7.5 to 9.5 h
Half-life [3, 6]: around 13 h
Time of maximal serum concentration [3, 6]: 3 h
Elimination half-life ([3]; single oral dose 250 mg/kg body weight, 14C-TBBPA, non-compartmental model): around 4.5 h
Time of maximal plasma concentration post-dose ([3]; single oral dose 250 mg/kg body weight, 14C-TBBPA): 127 min
Aggregation of TTRVal30Met at low pH (turbidity at 400 nm) (V30M-TTR): efficiently prevents the aggregation
Genotoxicity in Ames tests [4]: negative results
Kd (TTR; 25°C, assuming independent binding sites (single-site model), read-out: Binding affinity to TTR (Kd)): 20 nM
Kd (TTR; negative cooperativity, first site, read-out: Kd1): 6 nM
Kd (TTR; read-out: Kd2, negative cooperativity, second site): 975 nM
IC50 (plasma TTR; IC50 plasma, human plasma, 2 h incubation, 4 M urea, three independent experiments): 3300 ± 500 nM
Saturation of the high-affinity binding site of TTR (plasma TTR; at a TBBPA plasma concentration of 5 μM, based on the IC50 value): 48%
Stabilization of TTR tetramer in human plasma (plasma TTR; human plasma, 4 M urea): effectively stabilizes TTR at a stoichiometric ratio in plasma; also recorded: pronounced stabilizing effect on TTR is observed even at concentrations as low as 4 μM

SMILES: O=C(O)c1cc(-c2ccc(F)cc2F)ccc1O [Diflunisal, diflunisal]
Cell survival in presence of cytotoxic TTR [1]: increased cell survival to essentially that of the untreated control cells
Aggregation of TTR at low pH (turbidity at 400 nm) (WT-TTR): prevents the aggregation
Serum concentration ([5]; 250 mg twice per day): 145 µM
Serum concentration ([5]; 500 mg twice per day): 420 µM
Bioavailability ([5]; oral administration): good
Aggregation of TTRVal30Met at low pH (turbidity at 400 nm) (V30M-TTR): prevents the aggregation
